Measurements as given in patent US10172875B2, “Therapeutic combinations comprising anti-FOLR1 immunoconjugates” (ImmunoGen, Inc., priority 2015, dated 2019).
Where two headings read alike, the source gives them in different places.

Experiments:
[1] = tested on: ST088 human epithelial ovarian cancer patient derived tumor xenografts; assay: Antitumor activity of IMGN853, PLD and combination in ST088 tumor model (Example 1); assay type: in vivo, SCID mice
Protocol: Tumor volumes were measured twice weekly in three dimensions using a caliper. […] FIG. 1 depicts the results.

[2] = tested on: IGROV-1 ovarian tumor xenografts; assay: Antitumor activity of IMGN853, bevacizumab and combination in IGROV-1 tumor model (Example 5); assay type: in vivo, SCID mice; conditions: IMGN853 5 mg/kg 1× and/or bevacizumab 5 mg/kg 1×
From the text: All treatments consisted of single doses (1×).
FIG. 4 depicts the results.

[3] = tested on: ST088 human epithelial ovarian cancer (EOC) patient-derived tumor xenografts; assay: Antitumor activity of IMGN853, bevacizumab, paclitaxel and combinations in ST088 tumor model (Example 6); assay type: in vivo, SCID mice; conditions: QWx2: IMGN853 5 mg/kg, bevacizumab 5 mg/kg, paclitaxel 10 mg/kg
Protocol: Tumor volumes were measured twice weekly in three dimensions using a caliper.

[4] = tested on: OV90 serous ovarian tumor xenografts; assay: Antitumor activity of IMGN853, cediranib and combination in OV90 tumor model (Example 9); assay type: in vivo, SCID mice; conditions: IMGN853 2.5 mg/kg 1× and/or cediranib 1.5 mg/kg qd×5
From the text: The term “respond favorably” generally refers to causing a beneficial state in a subject. With respect to cancer treatment, the term refers to providing a therapeutic effect on the subject. Positive therapeutic effects in cancer can be measured in a number of ways (See, W. A. Weber, J. Nucl. Med. 50:1S-10S (2009)). For example, tumor growth inhibition, molecular marker expression, serum marker expression, and molecular imaging techniques can all be used to assess therapeutic efficacy of an anti-cancer therapeutic. Log10 Cell Kill (LCK) can be used to quantify the tumor cell kill. Log10 cell kill (LCK) is calculated with the formula LCK=(T−C)/Td×3.32, where (T−C) (or tumor growth delay (TGD)) is the median time (in days) for the treatment group and control group tumors to reach a predetermined size (tumor-free survivors excluded). Td is the tumor doubling time (estimated from nonlinear exponential curve fit of daily median of control tumor growth), and 3.32 is the number of cell doublings per log of cell growth. The ability to reduce tumor volume may be assessed, for example, by measuring a % T/C value, which is the median tumor volume of treated subjects divided by the median tumor volume of the control subjects. With respect to tumor growth inhibition, according to NCI standards, a T/C≤42% is the minimum level of anti-tumor activity. A T/C<10% is considered a high anti-tumor activity level, with T/C (%)=Median tumor volume of the treated/Median tumor volume of the control×100. A favorable response can be assessed, for example, by increased progression-free survival (PFS), disease-free survival (DFS), or overall survival (OS), complete response (CR), partial response (PR), or, in some cases, stable disease (SD), a decrease in progressive disease (PD), a […] time to progression (TTP), a decrease in CA125 in the case of ovarian cancer, or any combination thereof.

γH2AX = γH2AX immunoblot of cellular extracts, IMGN853 and carboplatin (FIG. 9C); assay type: cell-based; conditions: carboplatin 40 μM, IMGN853 16 nM, alone or combined, 6 hours, then 18 hours drug-free medium
From the text: Cellular extracts were immunoblotted for γH2AX or actin (loading control) as indicated.

[5] = tested on: platinum-sensitive ovarian cancer patient derived xenografts (PDXs); assay: IMGN853 and carboplatin, single administration, in platinum-sensitive ovarian cancer PDX (FIG. 9D); assay type: in vivo, SCID mice
Protocol: Data are expressed as mean and standard error of the mean (SEM) for each time point.
To examine whether these in vitro cellular effects translated to improved efficacy in vivo, mice bearing patient-derived xenografts (PDX) obtained from an individual with EOC were treated with IMGN853 and carboplatin, both as single agents and in combination (FIG. 9D). […] Animals received a single administration of IMGN853 (2.5 mg/kg) or carboplatin (80 mg/kg), and each regimen inhibited tumor growth as monotherapy (T/C values of 43% and 20% on day 39, respectively).

[6] = tested on: platinum-resistant ovarian cancer PDXs; assay: IMGN853 and PLD in platinum-resistant EOC PDX model (FIG. 10C, 10D); assay type: in vivo, SCID mice; conditions: QWx2: IMGN853 5 mg/kg or PLD 4 mg/kg; day 49
Protocol: Data are expressed as mean and SEM for each time point.
Mean values are plotted against vehicle controls.
To extend the in vitro observations, the combination of IMGN853 and PLD was examined in a platinum-resistant EOC PDX model (FIG. 10C). Vehicle-treated animals progressed quickly and were removed from study when tumors reached volumes between 1500-2000 mm^3. QWx2 dosing of IMGN853 (5 mg/kg) inhibited tumor growth by 81% on day 49, and a similar degree of inhibition (83%) was seen when PLD (4 mg/kg) was administered on the same schedule.

OV-90 xenografts = assay: OV-90 tumors harvested 4 days post-dosing: histology, γH2AX, CD31, anti-maytansine (FIGS. 12A-12C); assay type: in vivo, mice; conditions: IMGN853 2.5 mg/kg and/or bevacizumab 5 mg/kg
Protocol: Original magnification, 4×; scale bars, 2 mm (for Combination panel, 600 μm).
For each group, representative micrographs from one of three tumors are shown. Original magnification, 20×; scale bars, 200 μm.
Next, as a pharmacodynamic readout, tumor γH2AX levels were measured by immunoblotting (FIG. 12B).
While genotoxic insults are the primary inducers of γH2AX, accumulation of this protein can also occur in response to hypoxia. […] In order to examine treatment-related effects on microvessels, immunohistochemical staining with the endothelial cell marker CD31 was performed (FIG. 12C, upper panel).

[7] = tested on: OV90 serous ovarian tumor xenografts; conditions: IMGN853 5 mg/kg 1× and/or bevacizumab 5 mg/kg 1×
Protocol: Mice were randomized into groups (n=6 per group) by tumor volume and subsequently dosed on Day 14 post-inoculation.
Tumor volumes were measured one to two times weekly in three dimensions using a caliper. The tumor volume was expressed in mm^3 using the formula V=Length×Width×Height×½ (Tomayko and Reynolds, Cancer Chemother. Pharmacol. 24:148-54 (1989)) Body weights were measured twice per week as an index of toxicity. Activity was assessed as described in Bissery et al. (1991).

[8] = tested on: H2110 non-small cell lung cancer (NSCLC) tumor xenografts; conditions: for CR / PR: responders/animals
Protocol: Mice were randomized into groups (n=6-10 per group) by tumor volume and subsequently dosed on Day 7 post-inoculation. All treatments consisted of single doses (1×).
Tumor volumes were measured one to two times weekly in three dimensions using a caliper. The tumor volume was expressed in mm^3 using the formula V=Length×Width×Height×½ (Tomayko 1989). Body weights were measured twice per week as an index of test agent toxicity. Activity was assessed as described in Bissery et al. (1991).

[9] = IMGN853 5 mg/kg QWx2 and/or PLD 4 mg/kg QWx2
[10] = IMGN853 5 mg/kg QWx2 and/or PLD 4 mg/kg QWx2, responders/animals
[11] = IMGN853 1.5 mg/kg 1×, alone or with bevacizumab 5 mg/kg 1×
[12] = IMGN853 3 mg/kg 1× and/or bevacizumab 5 mg/kg 1×

Which “tolerability / body weight” value ([1]; IMGN853 5 mg/kg QWx2) does the source give for IMGN853 here?
Its value is “well tolerated with no notable body weight loss observed”.

And the T/C [1, 9]?
The T/C was 31%.

And the antitumor activity rating [1, 9]?
The antitumor activity rating was “active”.

And the “complete responses (CR)” value [1, 10]?
The value was 0/8.

What about the “partial responses (PR)” value [1, 10] of the same substance?
Its value is 0/8.

And the T/C [2]?
The T/C was 20%.

And the TFS [2]?
The TFS was 0/4.

And the antitumor activity rating [2]?
Its antitumor activity rating is “active”.

What about the CR ([2]; responders/animals) of the same substance?
Its CR is 0/4.

What about the antitumor activity rating [3] of the same substance?
The antitumor activity rating was “active”.

What about the T/C ([3]; alone or combined) of the same substance?
The T/C was 31%.

What about the CR ([3]; responders/animals) of the same substance?
The CR was 0/8.

What about the PR ([3]; responders/animals) of the same substance?
The PR was 0/8.

What about the T/C [4] of the same substance?
Its T/C is 31%.

What about the antitumor activity rating [4] of the same substance?
The antitumor activity rating was “active”.

What about the LCK ([4]; Log10 cell kill) of the same substance?
Its LCK is 0.5.

And the PR ([4]; responders/animals)?
Its PR is 0/6.

What about the “T−C” value ([4]; tumor growth delay) of the same substance?
The value was 13 days.

And the γH2AX expression (γH2AX)?
The γH2AX expression was “induced γH2AX expression in IGROV-1 cells and to levels higher than those seen following carboplatin exposure alone”.

And the “single agent activity, previously determined (data not shown)” value ([5]; dose not stated)?
The value was “robust single agent activity”.

And the T/C ([5]; single administration: IMGN853 2.5 mg/kg and/or carboplatin 80 mg/kg, day 39)?
The T/C was 43%.

What about the tumor growth inhibition [6] of the same substance?
Its tumor growth inhibition is 81%.

What about the “tumor γH2AX levels by immunoblotting” value (OV-90 xenografts; 4 days post-dosing) of the same substance?
The value was “robustly induced”.

What about the “tumor microvessels, CD31 immunohistochemical staining” value (OV-90 xenografts; day 4) of the same substance?
The value was “numerous large vessels”.

And the T/C [7]?
The T/C was 36%.

What about the antitumor activity rating [7] of the same substance?
Its antitumor activity rating is “active”.

What about the “tumor free survivors (TFS)” value [7] of the same substance?
Its value is 0/5.

And the CR ([7]; responders/animals)?
Its CR is 1/5.

What about the T/C [8, 11] of the same substance?
The T/C was 64%.

What about the TFS [8, 11] of the same substance?
The TFS was 0/6.

What about the antitumor activity rating [8, 11] of the same substance?
Its antitumor activity rating is “inactive”.

What about the CR [8, 11] of the same substance?
Its CR is 0/6.

And the PR [8, 11]?
The PR was 1/6.

And the body weight loss ([8]; IMGN853 1.5 mg/kg monotherapy, Day 25 post-inoculation)?
The body weight loss was 8%.

And the T/C [8, 12]?
The T/C was 25%.

And the TFS [8, 12]?
The TFS was 0/6.

And the antitumor activity rating [8, 12]?
The antitumor activity rating was “active”.

And the CR [8, 12]?
The CR was 0/6.

And the PR [8, 12]?
The PR was 2/6.

And the body weight loss ([8]; IMGN853 3 mg/kg monotherapy, Day 42 post-inoculation)?
Its body weight loss is 9%.
